Source: patent publication EP1336602A1, “Nitrate prodrugs able to release nitric oxide in a controlled and selective way and their use for prevention and treatment of inflammatory, ischemic and proliferative diseases” (Scaramuzzino, Giovanni, priority 2002, dated 2003)

Legend:
[1] = male, Wistar, in vivo, po, 1.09 mg/kg
[2] = test system: S-nitrosohemoglobin (SNO-Hb); assay: S-nitrosohemoglobin (SNO-Hb) levels in rat blood, photolysis-chemiluminescence; type: in vivo, Sprague-Dawely rats; conditions: 100 mg/Kg i.p., versus endogenous levels
Description: A highly sensitive photolysis-chemiluminescence methodology was used. Nitric oxide, released from Hb-SNO through photolysis, was detected in a chemiluminescence spectrometer by reaction with ozone (McMahon, T. J., and Stamler, J. S. (1999) Methods Enzymol. 301, 99-114).
Blood was obtained from the left ventricle (arterial) and jugular vein (venous) of anesthetized Sprague-Dawely rats: 12 were controls and 12 were treated with 100 mg/Kg of N-[4-(5-p-tolyl-3-trifluoromethyl-1H-pyrazol-1-yl)phenylsulfonyl]-p-nitroxymethylbenzamide (Ela). Red blood cells were isolated by centrifugation at 800 g, washed three times in phosphate buffered saline at 4 °C, lysed by the addition of 4-fold excess volume of deionized water containing 0.5 mM EDTA and desalted rapidly according to the method of Penefsky at 4 °C.
In 24 rats, Hb samples were divided in two aliquots which were then treated or not treated with 10-fold excess HgCl2 which can remove the signal of Hb(Fell)NO.

C[C@@H]1C[C@H]2[C@@H]3CCC4=CC(=O)C=C[C@]4(C)[C@@]3(F)[C@@H](O)C[C@]2(C)[C@@]1(O)C(=O)COC(=O)c1ccc(CO[N+](=O)[O-])cc1 [ECXCa, (11β,16α)-9-fluoro-11,17-dihydroxy-21-(p-nitroxymethylbenzoyloxy)-pregna-1,4-diene-3,20-dione]
Rat arterial blood pressure [1]: 100%

Cc1ccc(-c2cc(C(F)(F)F)nn2-c2ccc(S(=O)(=O)NC(=O)c3ccc(CO[N+](=O)[O-])cc3)cc2)cc1 [Ela, N-[4-(5-p-tolyl-3-trifluoromethyl-1H-pyrazol-1-yl)phenylsulfonyl]-p-nitroxymethylbenzamide]
S-nitrosohemoglobin (SNO-Hb) levels in rat arterial blood ([2]; arterial blood (left ventricle)): significantly increase
S-nitrosohemoglobin (SNO-Hb) levels in rat venous blood ([2]; venous blood (jugular vein)): significantly increase
